Source: article PMC7827406, “Structure–Activity Relationship (SAR) Study of Spautin-1 to Entail the Discovery of Novel NEK4 Inhibitors” (International Journal of Molecular Sciences, 2021)
Where two headings read alike, the source gives them in different places.

Key:
Assay in all cases: biochemical
Set-up in all cases: Eurofins KinaseProfiler full panel at Km ATP, residual kinase activity (%) relative to DMSO
PAK4(h) = PAK4(h) (Homo sapiens, UniProt O96013)
How it was run: (§1)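 Radiometric kinase activity assays were run with ATP at Km and compounds at 10 µM, and remaining activity (%) was reported. A separate competitive binding screen measured DNA-tagged kinase displaced from immobilized active-site ligands by qPCR, giving percent kinase still bound at 10 µM compound in DMSO.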

EphA4(h) = EphA4(h) (Homo sapiens, UniProt P54764)
How it was run: as §1

EphB2(h) = molecular target: T1, EphB2(h) (Homo sapiens, UniProt P29323)
T1 sequence (P29323 1-1055): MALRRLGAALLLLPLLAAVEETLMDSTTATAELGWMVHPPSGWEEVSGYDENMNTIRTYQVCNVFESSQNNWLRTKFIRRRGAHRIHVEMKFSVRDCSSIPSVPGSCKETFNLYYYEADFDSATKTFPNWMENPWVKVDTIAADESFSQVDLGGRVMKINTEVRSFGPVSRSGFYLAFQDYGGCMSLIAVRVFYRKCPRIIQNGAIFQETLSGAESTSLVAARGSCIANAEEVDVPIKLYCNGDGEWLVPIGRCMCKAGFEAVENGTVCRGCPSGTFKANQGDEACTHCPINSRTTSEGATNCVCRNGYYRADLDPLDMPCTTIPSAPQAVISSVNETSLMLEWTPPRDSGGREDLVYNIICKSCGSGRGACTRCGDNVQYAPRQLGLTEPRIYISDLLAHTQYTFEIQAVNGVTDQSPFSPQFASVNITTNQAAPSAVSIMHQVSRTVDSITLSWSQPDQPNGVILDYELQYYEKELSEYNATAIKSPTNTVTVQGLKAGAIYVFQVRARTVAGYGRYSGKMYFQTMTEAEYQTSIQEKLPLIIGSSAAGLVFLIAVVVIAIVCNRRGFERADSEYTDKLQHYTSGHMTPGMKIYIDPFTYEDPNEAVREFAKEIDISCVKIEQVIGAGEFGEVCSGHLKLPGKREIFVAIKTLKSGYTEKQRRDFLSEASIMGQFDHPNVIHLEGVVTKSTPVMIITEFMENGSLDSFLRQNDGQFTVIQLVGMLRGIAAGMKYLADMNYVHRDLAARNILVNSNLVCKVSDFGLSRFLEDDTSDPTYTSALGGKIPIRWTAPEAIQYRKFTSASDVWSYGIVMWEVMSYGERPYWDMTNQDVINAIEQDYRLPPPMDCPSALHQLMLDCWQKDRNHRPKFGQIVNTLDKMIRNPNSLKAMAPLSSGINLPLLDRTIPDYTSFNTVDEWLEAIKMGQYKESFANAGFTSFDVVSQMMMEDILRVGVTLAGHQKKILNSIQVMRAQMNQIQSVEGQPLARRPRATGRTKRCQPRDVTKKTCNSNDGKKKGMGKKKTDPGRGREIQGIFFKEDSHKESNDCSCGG
How it was run: as §1

PKAcβ(h) = molecular target: T2, PKAcβ(h) (Homo sapiens, UniProt P22694)
T2 construct: gene PRKACB
How it was run: as §1

NEK11(h) = molecular target: T3, NEK11(h) (Homo sapiens, UniProt Q8NG66)
T3 sequence (Q8NG66 1-645): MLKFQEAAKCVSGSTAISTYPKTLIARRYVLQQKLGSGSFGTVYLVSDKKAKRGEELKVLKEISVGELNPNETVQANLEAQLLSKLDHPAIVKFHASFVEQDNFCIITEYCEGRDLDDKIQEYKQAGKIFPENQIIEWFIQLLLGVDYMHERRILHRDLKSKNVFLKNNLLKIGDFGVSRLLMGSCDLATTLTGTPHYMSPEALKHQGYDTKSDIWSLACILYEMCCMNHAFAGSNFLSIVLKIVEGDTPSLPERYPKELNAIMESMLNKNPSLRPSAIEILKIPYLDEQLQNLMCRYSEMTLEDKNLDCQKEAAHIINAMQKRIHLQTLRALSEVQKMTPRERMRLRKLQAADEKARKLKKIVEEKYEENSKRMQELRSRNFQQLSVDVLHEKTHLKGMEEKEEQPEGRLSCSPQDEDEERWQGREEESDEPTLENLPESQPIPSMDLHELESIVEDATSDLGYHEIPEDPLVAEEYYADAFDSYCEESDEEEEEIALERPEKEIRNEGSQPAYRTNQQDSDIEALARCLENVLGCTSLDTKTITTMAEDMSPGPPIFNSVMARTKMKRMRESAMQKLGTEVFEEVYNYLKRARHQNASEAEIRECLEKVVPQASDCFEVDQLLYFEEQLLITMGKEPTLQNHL
How it was run: as §1

BIKe(h) = molecular target: T4, BIKe(h) (Homo sapiens, UniProt Q9NSY1)
T4 construct: gene BMP2K
How it was run: as §1

GRK5(h) = GRK5(h) (Homo sapiens, UniProt P34947)
How it was run: as §1

STK32A(h) = STK32A(h) (Homo sapiens, UniProt Q8WU08)
How it was run: as §1

Fer(h) = Fer(h) (Homo sapiens, UniProt P16591)
How it was run: as §1

[1] = read-out: Residual activity (%) 5at
[2] = read-out: Residual activity (%) 5as
[3] = read-out: Residual activity (%) 5ay
[4] = read-out: Residual activity (%) Spautin-1 5aa

Sequence of STK32A(h) (Q8WU08 whole entry): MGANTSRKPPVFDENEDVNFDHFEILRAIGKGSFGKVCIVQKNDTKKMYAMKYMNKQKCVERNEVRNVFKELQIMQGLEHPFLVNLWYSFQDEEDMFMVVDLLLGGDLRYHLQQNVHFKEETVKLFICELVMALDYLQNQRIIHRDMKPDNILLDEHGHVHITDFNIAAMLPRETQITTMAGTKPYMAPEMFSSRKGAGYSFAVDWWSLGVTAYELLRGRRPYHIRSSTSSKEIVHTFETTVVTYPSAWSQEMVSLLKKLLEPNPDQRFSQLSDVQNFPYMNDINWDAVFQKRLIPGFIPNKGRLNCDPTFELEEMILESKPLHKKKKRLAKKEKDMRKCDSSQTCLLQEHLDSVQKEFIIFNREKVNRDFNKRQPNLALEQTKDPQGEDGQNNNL
Sequence of Fer(h) (P16591 whole entry): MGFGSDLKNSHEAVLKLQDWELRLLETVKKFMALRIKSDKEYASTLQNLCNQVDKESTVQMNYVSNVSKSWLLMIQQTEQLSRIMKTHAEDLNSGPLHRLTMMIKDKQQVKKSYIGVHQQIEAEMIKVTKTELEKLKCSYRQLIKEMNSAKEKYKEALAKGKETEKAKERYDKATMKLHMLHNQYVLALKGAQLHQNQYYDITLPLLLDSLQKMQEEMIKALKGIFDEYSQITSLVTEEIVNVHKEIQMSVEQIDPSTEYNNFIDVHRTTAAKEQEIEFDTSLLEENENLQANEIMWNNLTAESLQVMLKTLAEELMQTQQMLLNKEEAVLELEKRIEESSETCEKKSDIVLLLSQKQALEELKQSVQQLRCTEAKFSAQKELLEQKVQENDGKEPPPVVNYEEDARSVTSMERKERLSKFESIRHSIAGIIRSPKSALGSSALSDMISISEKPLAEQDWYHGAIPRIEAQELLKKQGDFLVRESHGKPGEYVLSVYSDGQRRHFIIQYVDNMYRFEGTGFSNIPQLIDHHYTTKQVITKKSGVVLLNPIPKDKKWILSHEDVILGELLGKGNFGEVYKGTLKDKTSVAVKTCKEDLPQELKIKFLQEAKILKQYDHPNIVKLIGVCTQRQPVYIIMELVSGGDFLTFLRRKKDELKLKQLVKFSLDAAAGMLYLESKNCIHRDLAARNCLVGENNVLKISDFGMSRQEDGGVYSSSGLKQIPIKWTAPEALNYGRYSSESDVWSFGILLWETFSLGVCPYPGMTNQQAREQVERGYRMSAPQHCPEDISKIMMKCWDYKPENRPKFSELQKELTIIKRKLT
Sequence of GRK5(h) (P34947 whole entry): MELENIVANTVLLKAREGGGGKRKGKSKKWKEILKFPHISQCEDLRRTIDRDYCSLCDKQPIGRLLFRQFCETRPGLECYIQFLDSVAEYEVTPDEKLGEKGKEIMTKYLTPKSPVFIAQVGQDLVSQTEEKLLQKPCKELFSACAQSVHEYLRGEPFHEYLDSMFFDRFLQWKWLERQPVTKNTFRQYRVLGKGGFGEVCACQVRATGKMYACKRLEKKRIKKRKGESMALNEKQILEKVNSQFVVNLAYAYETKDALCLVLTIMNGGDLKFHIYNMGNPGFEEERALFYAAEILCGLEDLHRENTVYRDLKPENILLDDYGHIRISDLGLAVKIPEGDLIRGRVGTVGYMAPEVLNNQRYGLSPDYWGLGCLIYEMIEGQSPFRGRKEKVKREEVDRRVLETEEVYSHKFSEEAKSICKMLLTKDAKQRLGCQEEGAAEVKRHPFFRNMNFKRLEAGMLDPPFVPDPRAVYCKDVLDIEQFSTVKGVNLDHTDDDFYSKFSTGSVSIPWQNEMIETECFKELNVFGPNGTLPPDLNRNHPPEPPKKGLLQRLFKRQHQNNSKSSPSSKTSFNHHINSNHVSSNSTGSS
Sequence of EphA4(h) (P54764 whole entry): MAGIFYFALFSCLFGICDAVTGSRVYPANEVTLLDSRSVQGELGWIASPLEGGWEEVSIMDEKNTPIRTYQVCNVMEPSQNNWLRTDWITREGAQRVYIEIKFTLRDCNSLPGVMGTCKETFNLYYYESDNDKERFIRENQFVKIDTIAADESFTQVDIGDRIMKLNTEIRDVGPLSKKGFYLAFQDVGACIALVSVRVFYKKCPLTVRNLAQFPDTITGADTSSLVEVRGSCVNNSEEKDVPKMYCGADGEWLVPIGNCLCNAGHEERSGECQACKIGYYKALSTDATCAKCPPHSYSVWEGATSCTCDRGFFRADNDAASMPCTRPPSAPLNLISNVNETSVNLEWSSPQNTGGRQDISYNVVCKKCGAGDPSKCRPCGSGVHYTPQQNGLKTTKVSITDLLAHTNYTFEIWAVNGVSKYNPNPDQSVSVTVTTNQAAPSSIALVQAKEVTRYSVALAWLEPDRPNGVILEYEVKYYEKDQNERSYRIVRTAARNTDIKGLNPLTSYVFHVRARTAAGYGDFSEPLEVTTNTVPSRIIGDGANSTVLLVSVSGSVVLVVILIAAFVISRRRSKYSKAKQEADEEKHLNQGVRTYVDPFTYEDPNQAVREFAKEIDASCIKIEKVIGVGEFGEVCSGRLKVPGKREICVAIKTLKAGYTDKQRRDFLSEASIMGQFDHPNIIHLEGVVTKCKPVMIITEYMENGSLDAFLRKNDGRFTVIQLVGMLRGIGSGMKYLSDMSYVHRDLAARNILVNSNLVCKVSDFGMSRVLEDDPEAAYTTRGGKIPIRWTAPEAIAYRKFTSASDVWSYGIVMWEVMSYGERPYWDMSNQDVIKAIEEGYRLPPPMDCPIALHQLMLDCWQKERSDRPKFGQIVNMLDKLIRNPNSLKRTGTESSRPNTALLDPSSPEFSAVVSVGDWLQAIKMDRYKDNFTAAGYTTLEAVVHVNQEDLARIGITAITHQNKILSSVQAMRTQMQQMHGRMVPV
Sequence of PAK4(h) (O96013 whole entry): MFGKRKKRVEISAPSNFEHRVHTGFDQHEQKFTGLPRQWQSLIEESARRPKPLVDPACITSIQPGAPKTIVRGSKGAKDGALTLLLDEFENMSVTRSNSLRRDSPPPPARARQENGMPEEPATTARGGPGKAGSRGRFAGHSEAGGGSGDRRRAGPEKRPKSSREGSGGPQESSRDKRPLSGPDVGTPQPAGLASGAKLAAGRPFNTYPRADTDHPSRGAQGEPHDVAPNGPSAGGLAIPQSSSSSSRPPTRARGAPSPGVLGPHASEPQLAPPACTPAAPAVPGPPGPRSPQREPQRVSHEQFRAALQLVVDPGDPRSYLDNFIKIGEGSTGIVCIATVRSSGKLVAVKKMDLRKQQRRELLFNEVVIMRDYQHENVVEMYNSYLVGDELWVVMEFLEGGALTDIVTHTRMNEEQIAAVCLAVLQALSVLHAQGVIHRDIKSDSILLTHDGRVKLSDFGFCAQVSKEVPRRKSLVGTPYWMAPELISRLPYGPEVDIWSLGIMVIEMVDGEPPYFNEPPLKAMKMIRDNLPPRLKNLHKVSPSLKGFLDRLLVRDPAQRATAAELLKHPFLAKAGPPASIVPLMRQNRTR
T4 sequence (Q9NSY1 whole entry): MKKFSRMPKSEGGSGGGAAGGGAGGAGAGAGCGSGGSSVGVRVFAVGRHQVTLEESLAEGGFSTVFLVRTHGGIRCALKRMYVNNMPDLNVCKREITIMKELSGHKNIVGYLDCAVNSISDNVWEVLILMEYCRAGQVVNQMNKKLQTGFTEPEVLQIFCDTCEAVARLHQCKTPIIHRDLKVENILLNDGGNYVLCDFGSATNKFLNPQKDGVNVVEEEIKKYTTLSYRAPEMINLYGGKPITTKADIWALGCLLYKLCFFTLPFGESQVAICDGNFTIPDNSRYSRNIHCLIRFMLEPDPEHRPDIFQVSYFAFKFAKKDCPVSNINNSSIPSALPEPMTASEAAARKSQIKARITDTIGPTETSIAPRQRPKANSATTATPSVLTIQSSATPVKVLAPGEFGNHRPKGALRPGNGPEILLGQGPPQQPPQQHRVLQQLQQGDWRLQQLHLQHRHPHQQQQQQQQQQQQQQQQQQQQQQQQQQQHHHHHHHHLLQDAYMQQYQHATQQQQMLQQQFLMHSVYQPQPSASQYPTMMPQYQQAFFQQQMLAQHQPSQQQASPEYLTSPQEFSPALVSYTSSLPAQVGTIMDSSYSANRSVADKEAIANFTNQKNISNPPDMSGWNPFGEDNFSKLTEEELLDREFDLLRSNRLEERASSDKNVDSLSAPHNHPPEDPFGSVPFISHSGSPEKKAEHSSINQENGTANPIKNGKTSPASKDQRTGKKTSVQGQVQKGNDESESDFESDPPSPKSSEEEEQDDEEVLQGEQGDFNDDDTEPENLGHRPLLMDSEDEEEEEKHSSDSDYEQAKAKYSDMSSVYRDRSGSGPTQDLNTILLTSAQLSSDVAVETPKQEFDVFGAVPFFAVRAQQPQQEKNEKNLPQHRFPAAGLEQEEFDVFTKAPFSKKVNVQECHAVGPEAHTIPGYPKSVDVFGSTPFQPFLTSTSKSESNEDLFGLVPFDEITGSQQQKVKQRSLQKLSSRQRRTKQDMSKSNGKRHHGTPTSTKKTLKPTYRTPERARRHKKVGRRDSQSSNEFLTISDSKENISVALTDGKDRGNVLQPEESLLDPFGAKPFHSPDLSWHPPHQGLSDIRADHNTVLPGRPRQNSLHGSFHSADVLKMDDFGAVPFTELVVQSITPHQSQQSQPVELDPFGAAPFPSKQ

`Fc1ccc2ncnc(NCCc3ccc(Cl)cc3)c2c1` [5at, N-[2-(4-Chlorophenyl)Ethyl]-6-Fluoro-4-Quinazolinamine] was tested, and the remaining activity at 10 µM (PAK4(h); [1]) was 90%, the remaining activity at 10 µM (EphA4(h); [1]) was 80% and the remaining activity at 10 µM (EphB2(h); [1]) was 93%. For the same compound, the remaining activity at 10 µM (PKAcβ(h); [1]) was 107%, the remaining activity at 10 µM (NEK11(h); [1]) was 45% and the remaining activity at 10 µM (BIKe(h); [1]) was 88%. For the same compound, the remaining activity at 10 µM (GRK5(h); [1]) was 96%, the remaining activity at 10 µM (STK32A(h); [1]) was 100% and the remaining activity at 10 µM (Fer(h); [1]) was 94%.

In the case of `Fc1ccc(CCNc2ncnc3ccc(F)cc23)cc1` [5as, 6-Fluoro-N-[2-(4-Fluorophenyl)Ethyl]-4-Quinazolinamine], the remaining activity at 10 µM (PAK4(h); [2]) is reported as 92%, the remaining activity at 10 µM (EphA4(h); [2]) is reported as 83% and the remaining activity at 10 µM (EphB2(h); [2]) is reported as 82%. For the same compound, the remaining activity at 10 µM (PKAcβ(h); [2]) was 97%, the remaining activity at 10 µM (NEK11(h); [2]) was 71% and the remaining activity at 10 µM (BIKe(h); [2]) was 98%. The remaining activity at 10 µM (GRK5(h); [2]) was 95%, the remaining activity at 10 µM (STK32A(h); [2]) was 99% and the remaining activity at 10 µM (Fer(h); [2]) was 98%.

`COc1ccc2ncnc(Nc3cccc(F)c3)c2c1` [5ay, N-(3-Fluorophenyl)-6-Methoxy-4-Quinazolinamine] was tested, and the remaining activity at 10 µM (PAK4(h); [3]) was 83%, the remaining activity at 10 µM (EphA4(h); [3]) was 86% and the remaining activity at 10 µM (EphB2(h); [3]) was 97%. For the same compound, the remaining activity at 10 µM (PKAcβ(h); [3]) was 85%, the remaining activity at 10 µM (NEK11(h); [3]) was 53% and the remaining activity at 10 µM (BIKe(h); [3]) was 67%. For the same compound, the remaining activity at 10 µM (GRK5(h); [3]) was 89%, the remaining activity at 10 µM (STK32A(h); [3]) was 103% and the remaining activity at 10 µM (Fer(h); [3]) was 80%.

With `Fc1ccc(CNc2ncnc3ccc(F)cc23)cc1` [5aa, 6-Fluoro-N-(4-fluorobenzyl)-4-Quinazolinamine] the remaining activity at 10 µM (PAK4(h); [4]) was 90%, the remaining activity at 10 µM (EphA4(h); [4]) was 89% and the remaining activity at 10 µM (EphB2(h); [4]) was 96%. For the same compound, the remaining activity at 10 µM (PKAcβ(h); [4]) was 87%, the remaining activity at 10 µM (NEK11(h); [4]) was 41% and the remaining activity at 10 µM (BIKe(h); [4]) was 95%. For the same compound, the remaining activity at 10 µM (GRK5(h); [4]) was 86%, the remaining activity at 10 µM (STK32A(h); [4]) was 95% and the remaining activity at 10 µM (Fer(h); [4]) was 76%.
